Source: US10829481B2, “Benzimidazole derivatives as modulators of ROR-gamma” (Vitae Pharmaceuticals, LLC, priority 2016, dated 2020)

Key:
[1] = target: full-length RORγt in Jurkat cells (Homo sapiens (Human), UniProt P51449); assay: RORγt 5×RORE Assay in Jurkat Cells (Assay 2); type: cell-based; conditions: 5×RORE Nanoluc luciferase reporter
[2] = target: recombinant RORγ Ligand Binding Domain (LBD) protein (Homo sapiens (Human), UniProt P51449); assay: Radio-Ligand RORγ Binding Assay (Assay 1); conditions: competition with 25-hydroxy [26,27-3H]-cholesterol, SPA
Outline: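 His-GST-fused RORγ ligand-binding domain (24 nM solution) competed between compounds and tritiated 25-hydroxycholesterol (8.6 nM solution), read by SPA after brief rt incubations in pH 7.4 HEPES/glycerol/detergent buffer. Four-parameter curve fitting gave IC50 at inflection, converted to Ki using radioligand concentration and KD.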

Sequence of recombinant RORγ Ligand Binding Domain (LBD) protein (P51449 269-508): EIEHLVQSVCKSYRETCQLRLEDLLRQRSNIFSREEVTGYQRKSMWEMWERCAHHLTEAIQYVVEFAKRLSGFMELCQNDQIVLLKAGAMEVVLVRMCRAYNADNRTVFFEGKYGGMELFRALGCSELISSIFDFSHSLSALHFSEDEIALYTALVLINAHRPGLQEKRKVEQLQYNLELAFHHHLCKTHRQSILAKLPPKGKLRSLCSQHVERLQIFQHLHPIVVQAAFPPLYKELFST
Sequence of full-length RORγt in Jurkat cells (P51449 other isoform, or with tags, fused parts or gaps): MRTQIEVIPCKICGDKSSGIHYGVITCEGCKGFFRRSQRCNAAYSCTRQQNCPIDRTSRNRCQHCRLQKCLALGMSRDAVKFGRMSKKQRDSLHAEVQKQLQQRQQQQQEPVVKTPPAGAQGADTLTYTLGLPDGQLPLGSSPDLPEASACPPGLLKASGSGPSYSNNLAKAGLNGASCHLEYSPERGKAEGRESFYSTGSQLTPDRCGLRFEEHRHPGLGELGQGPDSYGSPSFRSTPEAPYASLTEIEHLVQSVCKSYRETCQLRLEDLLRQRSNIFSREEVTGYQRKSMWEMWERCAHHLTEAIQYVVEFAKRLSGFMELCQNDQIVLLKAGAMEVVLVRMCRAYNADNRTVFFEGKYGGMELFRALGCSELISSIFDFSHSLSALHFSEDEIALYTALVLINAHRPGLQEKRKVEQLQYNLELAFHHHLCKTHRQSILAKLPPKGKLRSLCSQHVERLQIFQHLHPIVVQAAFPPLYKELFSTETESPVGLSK

Molecule | IC50 [1] [nM] | Ki [2] [nM]
CCS(=O)(=O)c1ccc(CNC(=O)c2ccc3c(c2)nc(N(C)C)n3Cc2cccc3c2OC(F)(F)O3)cc1 [I-162, 1-((2,2-difluorobenzo[d][1,3]dioxol-4-yl)methyl)-2-(dimethylamino)-N-(4-(ethylsulfonyl)benzyl)-1H-benzo[d]imidazole-5-carboxamide] | < 100 | < 100
O=C(NCC1CCN(S(=O)(=O)CCO)CC1)c1ccc2c(c1)nc(C(F)(F)F)n2Cc1cccc2c1OC(F)(F)O2 [I-163, 1-((2,2-difluorobenzo[d][1,3]dioxol-4-yl)methyl)-N-((1-((2-hydroxyethyl)sulfonyl)piperidin-4-yl)methyl)-2-(trifluoromethyl)-1H-benzo[d]imidazole-5-carboxamide] | < 100 | < 100
CCS(=O)(=O)c1ccc([C@H](CC(=O)O)NC(=O)c2ccc3c(c2)nc(C(F)(F)F)n3Cc2cccc3c2OC(F)(F)O3)cc1 [I-165, (S)-3-(1-((2,2-difluorobenzo[d][1,3]dioxol-4-yl)methyl)-2-(trifluoromethyl)-1H-benzo[d]imidazole-5-carboxamido)-3-(4-(ethylsulfonyl)phenyl)propanoic acid] | > 1000 | < 100
CCS(=O)(=O)c1ccc([C@H](COCC(=O)O)NC(=O)c2ccc3c(c2)nc(C(F)(F)F)n3Cc2cccc3c2OC(F)(F)O3)cc1 [I-166, (R)-2-(2-(1-((2,2-difluorobenzo[d][1,3]dioxol-4-yl)methyl)-2-(trifluoromethyl)-1H-benzo[d]imidazole-5-carboxamido)-2-(4-(ethylsulfonyl)phenyl)ethoxy)acetic acid] | > 1000 | < 100
CCS(=O)(=O)c1ccc([C@H](CC(=O)NC)NC(=O)c2ccc3c(c2)nc(C(F)(F)F)n3Cc2cccc3c2OC(F)(F)O3)cc1 [I-167, (S)-1-((2,2-difluorobenzo[d][1,3]dioxol-4-yl)methyl)-N-(1-(4-(ethylsulfonyl)phenyl)-3-(methylamino)-3-oxopropyl)-2-(trifluoromethyl)-1H-benzo[d]imidazole-5-carboxamide] | < 100 | < 100
CCS(=O)(=O)c1ccc([C@H](CC(N)=O)NC(=O)c2ccc3c(c2)nc(C(F)(F)F)n3Cc2cccc3c2OC(F)(F)O3)cc1 [I-168, (S)-N-(3-amino-1-(4-(ethylsulfonyl)phenyl)-3-oxopropyl)-1-((2,2-difluorobenzo[d][1,3]dioxol-4-yl)methyl)-2-(trifluoromethyl)-1H-benzo[d]imidazole-5-carboxamide] | < 100 | < 100
CNC(=O)CS(=O)(=O)c1ccc(CNC(=O)c2ccc3c(c2)nc(C(F)(F)F)n3Cc2cccc3c2OC(F)(F)O3)cc1 [I-169, 1-((2,2-difluorobenzo[d][1,3]dioxol-4-yl)methyl)-N-(4-((2-(methylamino)-2-oxoethyl)sulfonyl)benzyl)-2-(trifluoromethyl)-1H-benzo[d]imidazole-5-carboxamide] | < 100 | < 100
CCS(=O)(=O)c1ccc(C(O)C(=O)Nc2ccc3c(c2)nc(C(F)(F)F)n3Cc2cccc3c2OC(F)(F)O3)cc1 (stereo not shown) [I-170, N-(1-((2,2-difluorobenzo[d][1,3]dioxol-4-yl)methyl)-2-(trifluoromethyl)-1H-benzo[d]imidazol-5-yl)-2-(4-(ethylsulfonyl)phenyl)-2-hydroxyacetamide] | < 100 | < 100
CCS(=O)(=O)c1ccc(CNC(=O)c2ccc3c(c2)nc(C(F)(F)F)n3Cc2cccc3c2CCO3)cc1 [I-172, 1-((2,3-dihydrobenzofuran-4-yl)methyl)-N-(4-(ethylsulfonyl)benzyl)-2-(trifluoromethyl)-1H-benzo[d]imidazole-5-carboxamide] | < 100 | < 100
CCS(=O)(=O)c1ccc(CNC(=O)c2ccc3c(c2)nc(C(=O)OC)n3Cc2cccc3c2OC(F)(F)O3)cc1 [I-173, methyl 1-((2,2-difluorobenzo[d][1,3]dioxol-4-yl)methyl)-5-((4-(ethylsulfonyl)benzyl)carbamoyl)-1H-benzo[d]imidazole-2-carboxylate] | 100 to 1000 | < 100
(R)-1-(1-(3-cyanophenyl)ethyl)-N-(4-(ethylsulfonyl)benzyl)-2-(trifluoromethyl)-1H-benzo[d]imidazole-5-carboxamide [I-93.2] | < 100 | < 100
